Test results from patent US20050148547A1, “Fungicidal mixtures based on benzamidoxime derivatives and azoles” (priority 2002, published 2005).

Tests used:
[1] = test system: Erysiphe [syn. Blumeria] graminis forma specialis. tritici; assay: Activity against mildew of wheat (protective spray, greenhouse); assay type: in vivo; conditions: wheat seedlings Kanzler, 7 days
Experimental: (§1) Evaluation is carried out by determining the infected leaf areas as a percentage. These percentages are converted into efficacies. The efficacy (W) is calculated as follows using Abbot's formula: [formula] • α corresponds to the fungal infection of the treated plants as a % and • β corresponds to the fungal infection of the untreated (control) plants as a %
(§2) An efficacy of 0 means that the infection level of the treated plants corresponds to that of the untreated control plants; an efficacy of 100 means that the treated plants were not infected.
(§3) The expected efficacies of the mixtures of the active compounds were determined using Colby's formula [R. S. Colby, Weeds 15, 20-22 (1967)] and compared with the observed efficacies. Colby's formula: E=x+y−x·y/100 • E expected efficacy, expressed as a % of the untreated control, when using the mixture of the active compounds A and B at the concentrations a and b • x efficacy, expressed as a % of the untreated control, when using active compound A at a concentration of a • y efficacy, expressed as a % of the untreated control, when using active compound B at a concentration of b
Leaves of wheat seedlings of the cultivar “Kanzler”, grown in pots, were sprayed to runoff point with an aqueous preparation of active compound which had been prepared from a stock solution comprising 10% of active compound, 85% of cyclohexanone and 5% of emulsifier, and 24 hours after the spray coating had dried on the leaves were dusted with spores of mildew of wheat (Erysiphe [syn. Blumeria] graminis forma specialis. tritici). The test plants were then placed in a greenhouse at 20-24° C. and 60-90% relative atmospheric humidity. After 7 days, the extent of the mildew development was determined visually in % infection of the entire leaf area.
(§4) The visually determined values for the percentage of diseased leaf areas were converted into efficacies in % of the untreated control. An efficacy of 0 means the same disease level in the untreated control, an efficacy of 100 means a disease level of 0%. The expected efficacies for the combinations of active compounds were determined using Colby's formula (Colby, S. R. (Calculating synergistic and antagonistic responses of herbicide Combinations”, Weeds, 15, pp. 20-22, 1967) and compared with the observed efficacies.

Puccinia recondita = assay: Curative activity against brown rust of wheat (greenhouse); assay type: in vivo; conditions: wheat seedlings Kanzler, 7 days
Experimental: The active compounds, separately or together, are formulated as a 10% emulsion in a mixture of 63% by weight of cyclohexanone and 27% by weight of emulsifier, and diluted with water to the desired concentration.
as §1, §2, §3
Leaves of wheat seedlings of the cultivar “Kanzler”, grown in pots, were dusted with spores of brown rust (Puccinia recondita). The pots were then placed in a chamber with high atmospheric humidity (90-95%), at 20-22° C., for 24 hours. During this time the spores germinated and the germinal tubes penetrated into the leaf tissue. The next day, the infected plants were sprayed to runoff point with an aqueous formulation of active compound prepared from a stock solution consisting of 10% of active compound, 85% of cyclohexanone and 5% of emulsifier. After the spray coating had dried on, the test plants were cultivated in a greenhouse at 20-22° C. and 65-70% relative atmospheric humidity for 7 days. Thereafter, the extent of the rust fungus development on the leaves was determined.
as §4, with “disease level as in the” for “disease level in the”, “Colby's formula (Colby. S. R.” for “Colby's formula (Colby, S. R.”

| Structure (SMILES) | Efficacy in % of the untreated control ([1]; 0.015 ppm in the spray liquor) [%] | Efficacy in % of the untreated control ([1]; 0.06 ppm in the spray liquor) [%] | Efficacy in % of the untreated control ([1]; 0.125 ppm in the spray liquor) [%] | Efficacy in % of the untreated control ([1]; 0.25 ppm in the spray liquor) [%] | Efficacy in % of the untreated control ([1]; 1 ppm in the spray liquor) [%] | Efficacy in % of the untreated control (Puccinia recondita; 0.015 ppm in the spray liquor) [%] | Efficacy in % of the untreated control (Puccinia recondita; 0.06 ppm in the spray liquor) [%] | Efficacy in % of the untreated control (Puccinia recondita; 0.25 ppm in the spray liquor) [%] | Efficacy in % of the untreated control (Puccinia recondita; 1 ppm in the spray liquor) [%] |
| --- | --- | --- | --- | --- | --- | --- | --- | --- | --- |
| Fc1ccc(C2(Cn3cncn3)OC2c2ccccc2Cl)cc1 (centres unmarked) [epoxiconazole] | 0 | 0 | 0 | 29 | 59 | 0 | 11 | 56 | – |
| CC1(C)CCC(Cc2ccc(Cl)cc2)C1(O)Cn1cncn1 (centres unmarked) [metconazole] | 0 | 0 | – | 0 | – | 0 | 0 | 56 | – |
| CCCCC(C#N)(Cn1cncn1)c1ccc(Cl)cc1 (centres unmarked) [myclobutanil] | 0 | 0 | – | 0 | – | – | 0 | 0 | 0 |
